SMILES strings stand for the structures. Like-named read-outs stand apart in the source and are kept apart here.

Data set [1] is classed as in vivo. The settings on record: for Time at which peak plasma concentrations were observed: range according to the experimental group and animal species (rats and jirds), FLBZ 5 mg/kg. The method, then: (§1) Jirds and rats were randomly allocated into four experimental groups (44 animals each). Experimental animals received the following treatments: FLBZ-CDoral, dosed orally (administered volume 0.25 and 1 mL for jirds and rats, respectively) in a CD-based solution (Cavasol); FLBZ-CDsc, dosed subcutaneously (sc) (injection volume of 0.25 and 1 mL for jirds and rats, respectively) in a CD-based solution (Cavitron); FLBZ-TWEEN, dosed sc (injection volume of 0.1 and 0.4 mL for jirds and rats, respectively) in a Tween-based formulation; and FLBZ-CMC, dosed orally (same volume as for FLBZ-CDoral) in a CMC-based suspension. The oral dose was administered using an intragastric tube. All treatments were given as a single dose of 5 mg/kg. The dose was selected because it is the dose previously reported in efficacy studies performed in the murine model. At defined time-points following treatment (5, 15 and 30 min, 1, 2, 3, 4, 6, 9, 12 and 16 h), blood samples were collected (n = 4 per time point) in heparinized plastic tubes. Plasma was separated by centrifugation at 2000× g for 15 min, placed into plastic tubes and frozen at −20°C until analysis by HPLC to quantify FLBZ, R-FLBZ and H-FLBZ plasma concentrations. After sc administration of the formulations, potential injection site reactions were evaluated by direct visual observation at the sampling time.
Chromatography was performed on a Shimadzu HPLC platform (Shimadzu Corporation, Kyoto, Japan), with two LC-10AS solvent pumps, an automatic sample injector (SIL-10A) with a 50 µL loop, an ultraviolet-visible spectrophotometric detector (UV) (SPD-10A) reading at 292 nm, a column oven (Eppendorf TC-45, Eppendorf, Madison, WI, USA) set at 30°C, and a CBM-10A integrator. Data and chromatograms were collected and analyzed using the Class LC10 software (SPD-10A, Shimadzu Corporation, Kyoto, Japan). The C18 reversed-phase column (5 µm, 250 mm×4.6 mm) was Kromasil (Kromasil®, Sweden). […]
Plasma samples (100 or 200 µL for jirds and rats, respectively) were spiked with OBZ as internal standard. […] Complete validation of the analytical procedures for extraction and quantification of drug and metabolites in plasma was performed before starting the analysis of experimental samples. […] The limit of quantification (FLBZ and metabolites was 0.01 µg/mL), defined as the lowest measured concentration with a CV <20%, accuracy of ±20% and absolute recovery ≥70%.
The peak concentration (Cmax) and time to peak concentration (Tmax) were read from the plotted concentration–time curve for each analyte. The area under the concentration–time curve from 0 up to the limit of quantification (AUC0-LOQ) for FLBZ and metabolites was calculated by the trapezoidal rule, using the PKSolutionTM computer program (Summit Research Services, Ashland, OR, USA). […]

Data set [2] can be described thus: Plasma pharmacokinetics of FLBZ and metabolites after oral or sc FLBZ formulations in jirds. In kind it is in vivo, jirds (Meriones unguiculatus). The procedure: as §1, with “All treatments were given as a single dose of 5 mg/kg. The dose was selected because it is the dose previously reported in efficacy studies performed in the murine model. At defined time-points following treatment (5, 15 and 30 min, 1, 2, 3, 4, 6, 9, 12 and 16 h), blood samples were collected (n = 4 per time point) in heparinized plastic tubes.” left out
Chromatography was performed on a Shimadzu HPLC platform (Shimadzu Corporation, Kyoto, Japan), with two LC-10AS solvent pumps, an automatic sample injector (SIL-10A) with a 50 µL loop, an ultraviolet-visible spectrophotometric detector (UV) (SPD-10A) reading at 292 nm, a column oven (Eppendorf TC-45, Eppendorf, Madison, WI, USA) set at 30°C, and a CBM-10A integrator. […]

For data set [3] the following is noted: mouse, in vivo; cited from earlier work.
Details of data set [4]: method as in earlier work. The settings on record: pigs after FLBZ treatment; cited from earlier work.

For `COC(=O)Nc1nc2ccc(C(O)c3ccc(F)cc3)cc2[nH]1` (stereo not shown) [R-FLBZ], in data set [1] (rat, in vivo), the “Amount of R-FLBZ metabolite present in the bloodstream” value is recorded as “only trace amounts”. Further, the “R-FLBZ AUC0-LOQ as share of the total drug recovered from plasma” value in data set [1] (rat, in vivo, 5 mg/kg) is “about 10%”; in data set [2] (the different groups, FLBZ 5 mg/kg), “about 10%”.

As to `COC(=O)Nc1nc2cc(C(=O)c3ccc(F)cc3)ccc2[nH]1` [FLBZ, flubendazole], the “Time at which peak plasma concentrations were observed” value in data set [1] was in the range of 0.7 to 3.2 h. In addition, in data set [3], the “Increase of systemic exposure compared to the conventional FLBZ suspension” value is recorded as “more than 25 fold”; the “Plasma AUC, fold higher than conventional suspension” value is recorded as 27 fold; the “Plasma Cmax, fold higher than conventional suspension” value is reported as 28 fold.

With `Nc1nc2cc(C(=O)c3ccc(F)cc3)ccc2[nH]1` [H-FLBZ], in data set [1], the “Time at which peak plasma concentrations were observed” value fell in the range of 3.0 to 5.2 h. Moreover, the “H-FLBZ concentrations as share of the total amount of drug recovered in plasma” value in data set [2] (FLBZ-CD (oral or sc) or FLBZ-TWEEN, 5 mg/kg) is reported as 10–20%. The “H-FLBZ as share of total drug measured in the bloodstream” value in data set [4] is 97%.

The values are drawn from publication PMC4038472, “Exploring the Potential of Flubendazole in Filariasis Control: Evaluation of the Systemic Exposure for Different Pharmaceutical Preparations” (PLoS Neglected Tropical Diseases, 2014).
